{"source": "patent US20140039056A1", "about": "“BROMFENAC ORGANIC SALTS AND PREPARATION METHOD, COMPOSITION AND USE THEREOF” (SHENYANG XINGQI PHARMACEUTICAL CO., LTD., priority 2010, published 2014)", "key": {"[1]": {"experiment": "Chemical stability in solid state (accelerated stability test at 60° C.)", "assay_type": "physicochemical", "conditions": "for change of content in accelerated test at 60° C.: solid state, in words", "description": "HPLC Analysis Conditions:\nDetector: ultraviolet absorption detector (wavelength: 266 nm).\nChromatography column: octadecyl silica gel column (4.0 mm×150 mm, 5 um).\nMobile phase: 3.85 g of ammonium acetate was precisely weighed, added with water to reach the metered volume of 1000 mL."}, "[2]": {"tested_on": "swelling of auricle caused by xylene in mice", "experiment": "Test of effects on swelling of auricle caused by xylene in mice", "assay_type": "in vivo", "conditions": "for effect on swelling of auricle caused by xylene in mice: in words; for Swelling degree: weight difference between two ears, lavage 50 mL/Kg of 1 g/100 ml solution twice per day for 7 days, mice", "description": "Test grouping: 40 mice, bodyweight 20±2 g, randomly divided into 4 groups, 10 mice per group, i.e., physiological control group, bromfenac sodium group, bromfenac diethylamine salt group, and bromfenac trometamol salt group.\nTest method: the mice of each test group were administered with physiological saline, solution of bromfenac sodium, solution of bromfenac diethylamine salt and solution of bromfenac trometamol salt, twice per day via lavage in lavage dose of 50 mL/Kg, for consecutive 7 days, 1 h after the last administration, xylene in dose of 0.05 mL/mouse was coated on right ears of mice of each test group, while their left ears were used as control, the mice were executed after 30 min, ear parts that were at the same place and had the same area were cut from both ears by a puncher with a diameter of 6 mm, and weighed with ten thousandth electronic analytical balance, and the weight difference between two ears was used as index of swelling."}, "[3]": {"experiment": "Tissue distribution test (muscle tissue under skin after application to the back)", "conditions": "rats; for Concentration in muscle tissue / concentration at 0 h / concentration at 2 h / concentration at 4 h / concentration at 6 h / concentration at 8 h / concentration at 10 h: n = 3; for time at which distribution in tissue reaches maximum values (peak concentrations): muscle tissue under skin; for concentration distributed in tissue compared with bromfenac sodium: muscle tissue; for concentration at 0 h / concentration at 2 h / concentration at 4 h / concentration at 6 h / concentration at 8 h / concentration at 10 h: rat, 1 g preparation, Concentration in muscle tissue", "description": "Preparation of bromfenac salt solutions: 0.25 g samples of bromfenac sodium, bromfenac diethylamine salt as prepared in Example 1 and bromfenac trometamol salt as prepared in Example 2 were precisely weighed separately, placed in 25 ml volumetric flasks respectively, metered volume to obtain stock solutions for standby use.\nChromatography conditions: detector: ultraviolet absorption detector (wavelength: 266 nm). Chromatography column: octadecyl silica gel column (4.6 mm×150 mm, 5 μm). Mobile phase: precisely weighed ammonium acetate 3.85 g, added with water to the metered volume of 1000 mL. 700 mL of this solution was taken and added with 300 mL acetonitrile. Flow rate: 1.0 mL/min.\nPlotting standard curves: 200 μl samples of blank tissue were taken, separately added with 50 μl of series standard solutions of bromfenac sodium, bromfenac diethylamine salt and bromfenac trometamol salt separately, added with 50 μl of internal standard respectively, to form sample solutions with equivalent tissue concentrations of bromfenac sodium, bromfenac diethylamine salt and bromfenac trometamol salt as 50, 100, 250, 500, 1000, 5000, 10000 ng/ml, which were separately weighed precisely to take 20 μl and injected into chromatography and separately assayed.\n1) On the test day, removed short hair on the back of rats were with a electric hair clipper to expose surface layer of skin, while trying to avoid breaking skin during hair cutting, and then washed unhairing region with a large quantity of water;\n2) anesthetized rats using 10% chloral hydrate in anesthetic agent dose of 3.5 ml/kg;\n3) randomly divided the rats into 3 groups, 15 rats per group. On the unhairing region of back, the rats of 3 groups were separately administered with 1 g of bromfenac sodium, bromfenac diethylamine and Bromfenac trometamol preparations, and the administration regions were covered with freshness-keeping plastic film;\n4) executed rats before administration (0 hours) and at 2 hours, 4 hours, 6 hours, 8 hours, 10 hours after administration, took muscle tissues under skin of administration sites;\n5) simply washed muscle tissues with physiological saline, then absorbed excessive water with filter paper;\n6) precisely weighed 1 g of muscle tissue, cut into pieces, homogenizing with 3 ml of physiological saline in electric grinding mill. A homogeneous muscle tissue homogenate was obtained after muscle tissue was ground completely;\n7) took […] of tissue sample, added with 50 μL of an internal standard solution, mixed homogeneously, added with 1 mL of methanol, mixed by vortex for 1 min, centrifuged for 5 min (3500 rpm), separated and placed upper layer organic phase into another tube, blow-dried with 37° C. air, dissolved the residue by adding 100 μL of mobile phase, mixed by vortex, and took 20 μL to perform HPLC analysis."}, "[4]": {"conditions": "analgesic effect; cited from earlier work"}, "[5]": {"conditions": "cited from earlier work"}}, "note": "Where a name gives a salt, the structure may show the parent alone. Read-outs that look alike come from different tables or passages of the source."}
{"smiles": "Nc1c(CC(=O)O)cccc1C(=O)c1ccc(Br)cc1", "note": "[Bromfenac diethylamine salt, bromfenac diethylamine salt]", "values": [{"measurement": "content (HPLC), solid state", "setting": "[1]; 60° C., 1 week", "result": 99.5, "unit": "%"}, {"measurement": "content (HPLC), solid state", "setting": "[1]; 60° C., 2 weeks", "result": 99.3, "unit": "%"}, {"measurement": "content (HPLC), solid state", "setting": "[1]; 60° C., 3 weeks", "result": 99.2, "unit": "%"}, {"measurement": "content (HPLC), solid state", "setting": "[1]; Initial", "result": 99.5, "unit": "%"}, {"measurement": "change of content in accelerated test at 60° C.", "setting": "[1]", "result": "no significant substantial change"}, {"measurement": "effect on swelling of auricle caused by xylene in mice", "setting": "[2]", "result": "significant inhibition effects"}, {"measurement": "Swelling degree", "setting": "[2]", "result": "5.37 ± 0.50", "unit": "mg"}, {"measurement": "Concentration in muscle tissue", "setting": "[3]; 0 hours (before administration)", "result": 0, "unit": "ng/mL"}, {"measurement": "Concentration in muscle tissue", "setting": "[3]; 2 hours after administration of 1 g preparation on back skin", "result": 1092.1, "unit": "ng/mL"}, {"measurement": "Concentration in muscle tissue", "setting": "[3]; 4 hours after administration of 1 g preparation on back skin", "result": 2657.6, "unit": "ng/mL"}, {"measurement": "Concentration in muscle tissue", "setting": "[3]; 6 hours after administration of 1 g preparation on back skin", "result": 1803.7, "unit": "ng/mL"}, {"measurement": "Concentration in muscle tissue", "setting": "[3]; 8 hours after administration of 1 g preparation on back skin", "result": 1108.3, "unit": "ng/mL"}, {"measurement": "Concentration in muscle tissue", "setting": "[3]; 10 hours after administration of 1 g preparation on back skin", "result": 262.4, "unit": "ng/mL"}, {"measurement": "time at which distribution in tissue reaches maximum values (peak concentrations)", "setting": "[3]", "result": 2, "unit": "h"}, {"measurement": "concentration distributed in tissue compared with bromfenac sodium", "setting": "[3]", "result": "significantly greater"}]}
{"smiles": "Nc1c(CC(=O)[O-])cccc1C(=O)c1ccc(Br)cc1.[Na+]", "note": "[Bromfenac sodium, 2-amino-3-(4-bromobenzoyl)phenylacetic acid sodium salt sesquialter hydrate, reference compound]", "values": [{"measurement": "potency relative to other non-steroid anti-inflammatory agents", "setting": "[4]", "result": 10, "unit": "times"}, {"measurement": "content (HPLC), solid state", "setting": "[1]; 60° C., 1 week", "result": 99.5, "unit": "%"}, {"measurement": "content (HPLC), solid state", "setting": "[1]; 60° C., 2 weeks", "result": 99.3, "unit": "%"}, {"measurement": "content (HPLC), solid state", "setting": "[1]; 60° C., 3 weeks", "result": 99.1, "unit": "%"}, {"measurement": "content (HPLC), solid state", "setting": "[1]; Initial", "result": 99.6, "unit": "%"}, {"measurement": "change of content in accelerated test at 60° C.", "setting": "[1]", "result": "no significant substantial change"}, {"measurement": "solubility", "setting": "[5]; 0.1M hydrochloric acid solution", "result": "almost insoluble"}, {"measurement": "solubility", "setting": "[5]; acetone", "result": "almost insoluble"}, {"measurement": "solubility", "setting": "[5]; acetonitrile", "result": "almost insoluble"}, {"measurement": "solubility", "setting": "[5]; ethanol", "result": "slight soluble"}, {"measurement": "solubility", "setting": "[5]; methanol", "result": "soluble"}, {"measurement": "solubility", "setting": "[5]; water", "result": "soluble"}, {"measurement": "effect on swelling of auricle caused by xylene in mice", "setting": "[2]", "result": "significant inhibition effects"}, {"measurement": "Swelling degree", "setting": "[2]", "result": "5.45 ± 0.36", "unit": "mg"}, {"measurement": "time at which distribution in tissue reaches maximum values (peak concentrations)", "setting": "[3]", "result": 2, "unit": "h"}, {"measurement": "concentration at 0 h", "setting": "[3]; in vivo, 0 hours (before administration)", "result": 0, "unit": "ng/mL"}, {"measurement": "concentration at 2 h", "setting": "[3]; in vivo, 2 hours after administration of 1 g preparation on back skin", "result": 238, "unit": "ng/mL"}, {"measurement": "concentration at 4 h", "setting": "[3]; in vivo, 4 hours after administration of 1 g preparation on back skin", "result": 693, "unit": "ng/mL"}, {"measurement": "concentration at 6 h", "setting": "[3]; in vivo, 6 hours after administration of 1 g preparation on back skin", "result": 509, "unit": "ng/mL"}, {"measurement": "concentration at 8 h", "setting": "[3]; in vivo, 8 hours after administration of 1 g preparation on back skin", "result": 313, "unit": "ng/mL"}, {"measurement": "concentration at 10 h", "setting": "[3]; in vivo, 10 hours after administration of 1 g preparation on back skin", "result": 130, "unit": "ng/mL"}]}
{"smiles": "Nc1c(CC(=O)O)cccc1C(=O)c1ccc(Br)cc1", "note": "[Bromfenac trometamol salt, bromfenac trometamol salt]", "values": [{"measurement": "content (HPLC), solid state", "setting": "[1]; 60° C., 2 weeks", "result": 99.4, "unit": "%"}, {"measurement": "content (HPLC), solid state", "setting": "[1]; 60° C., 3 weeks", "result": 99.2, "unit": "%"}, {"measurement": "change of content in accelerated test at 60° C.", "setting": "[1]", "result": "no significant substantial change"}, {"measurement": "effect on swelling of auricle caused by xylene in mice", "setting": "[2]", "result": "significant inhibition effects"}, {"measurement": "Swelling degree", "setting": "[2]", "result": "5.41 ± 0.47", "unit": "mg"}, {"measurement": "time at which distribution in tissue reaches maximum values (peak concentrations)", "setting": "[3]", "result": 2, "unit": "h"}, {"measurement": "concentration distributed in tissue compared with bromfenac sodium", "setting": "[3]", "result": "significantly greater"}, {"measurement": "concentration at 0 h", "setting": "[3]; muscle tissue under skin of administration site, topical, 0 hours (before administration)", "result": 0, "unit": "ng/mL"}, {"measurement": "concentration at 2 h", "setting": "[3]; muscle tissue under skin of administration site, topical, 2 hours after administration of 1 g preparation on back skin", "result": 852, "unit": "ng/mL"}, {"measurement": "concentration at 4 h", "setting": "[3]; muscle tissue under skin of administration site, topical, 4 hours after administration of 1 g preparation on back skin", "result": 1490, "unit": "ng/mL"}, {"measurement": "concentration at 6 h", "setting": "[3]; muscle tissue under skin of administration site, topical, 6 hours after administration of 1 g preparation on back skin", "result": 1100, "unit": "ng/mL"}, {"measurement": "concentration at 8 h", "setting": "[3]; muscle tissue under skin of administration site, topical, 8 hours after administration of 1 g preparation on back skin", "result": 790, "unit": "ng/mL"}, {"measurement": "concentration at 10 h", "setting": "[3]; muscle tissue under skin of administration site, topical, 10 hours after administration of 1 g preparation on back skin", "result": 201, "unit": "ng/mL"}]}
